# Laboratory results reported in US6737383B1, “Herbicidal oxadiazolidines” (priority 1999, dated 2004).
# What was measured:
# [1] = test system: pigweed; test: Test B pre/postemergence pigweed; format: in vivo, Amaranthus retroflexus
# In short: (§1)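 Test chemicals in a non-phytotoxic solvent mixture with surfactant were sprayed preemergence onto planted seeds and postemergence onto plants 2 to 18 cm tall (1- to 4-leaf stage). After twelve to sixteen days in a greenhouse, injury was visually rated against untreated controls from 0 (no effect) to 10 (complete control).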
# [2] = test system: rice; test: Test B flood test rice; format: in vivo, Oryza sativa
# In short: (§2)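 Flood test on plants grown to the 2-leaf stage; treated plants kept in greenhouse twelve to sixteen days, then visually rated against controls on a 0 (no effect) to 10 (complete control) scale.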
# [3] = test system: wheat; test: Test B pre/postemergence wheat; format: in vivo, Triticum aestivum
# In short: as §1
# [4] = test system: surinam grass; test: Test B pre/postemergence surinam grass; format: in vivo, Brachiaria decumbens
# In short: as §1
# [5] = test system: sugar beet; test: Test B pre/postemergence sugar beet; format: in vivo, Beta vulgaris
# In short: as §1
# [6] = test system: bedstraw; test: Test B pre/postemergence bedstraw; format: in vivo, Galium aparine
# In short: as §1
# [7] = test system: cocklebur; test: Test B pre/postemergence cocklebur; format: in vivo, Xanthium strumarium
# In short: as §1
# [8] = test system: bamyardgrass; test: Test B flood test barnyardgrass; format: in vivo, Echinochloa crus-galli
# In short: as §2
# [9] = test system: rape; test: Test B pre/postemergence rape; format: in vivo, Brassica napus
# In short: as §1
# [10] = test system: wild oat; test: Test B pre/postemergence wild oat; format: in vivo, Avena fatua
# In short: as §1
# [11] = test system: blackgrass; test: Test B pre/postemergence blackgrass; format: in vivo, Alopecurus myosuroides
# In short: as §1
# [12] = test system: morningglory; test: Test B pre/postemergence morningglory; format: in vivo, Ipomoea hederacea
# In short: as §1
# [13] = test system: corn; test: Test B pre/postemergence corn; format: in vivo, Zea mays
# In short: as §1
# [14] = test system: purple nutsedge; test: Test B pre/postemergence purple nutsedge; format: in vivo, Cyperus rotundus
# In short: as §1
# [15] = test system: crabgrass; test: Test B pre/postemergence crabgrass; format: in vivo, Digitaria sanguinalis
# In short: as §1
# [16] = test system: giant foxtail; test: Test B pre/postemergence giant foxtail; format: in vivo, Setaria faberii
# In short: as §1
# [17] = Postemergence, Rate 31 g/ha, visual rating, scale 0 to 10 (0 no effect, 10 complete control)
# [18] = Preemergence, Rate 62 g/ha, scale of 0 to 10 where 0 is no effect and 10 is complete control
# [19] = Preemergence, Rate 250 g/ha, scale of 0 to 10 where 0 is no effect and 10 is complete control
# [20] = Rate 62 g/ha, Postemergence, scale 0 to 10, 0 no effect, 10 complete control
# [21] = Rate 125 g/ha, Postemergence, scale of 0 to 10 where 0 is no effect and 10 is complete control
# [22] = Rate 250 g/ha, Postemergence, scale of 0 to 10 where 0 is no effect and 10 is complete control
# [23] = Rate 31 g/ha, Pre-emergence section (flood test species), scale 0 to 10
# [24] = Rate 62 g/ha, headed Pre-emergence (flood test species), scale 0 to 10 (0 no effect, 10 complete control)
# [25] = Rate 125 g/ha, Pre-emergence, flood test species, scale 0 to 10 where 0 is no effect and 10 is complete control
# [26] = Rate 250 g/ha, Pre-emergence, flood-test species, scale 0 to 10, 0 is no effect, 10 is complete control
# [27] = Preemergence, Rate 31 g/ha, visual rating, scale 0 to 10 (0 no effect, 10 complete control)
smiles,measurement,setting,value
COCC(C)N(C(=O)n1oc(=O)n(-c2ccccc2C)c1=O)c1ccc(F)cc1 (centres unmarked) [Compound 324],Redroot pigweed plant response rating,[1]; [17],0
same,Redroot pigweed plant response rating,[1]; [18],0
same,Redroot pigweed plant response rating (0 to 10 scale),"[1]; Preemergence, Rate 125 g/ha",0
same,Redroot pigweed plant response rating,[1]; [19],0
same,Redroot pigweed plant response rating,[1]; [20],0
same,Redroot pigweed plant response rating,[1]; [21],0
same,"Plant response rating, Redroot pigweed",[1]; [22],0
same,Rice plant response rating,[2]; [23],0
same,Rice plant response rating,[2]; [24],0
same,Rice plant response rating,[2]; [25],0
same,Rice plant response rating,[2]; [26],0
same,Wheat plant response rating,[3]; [17],0
same,Wheat plant response rating,[3]; [18],0
same,Wheat plant response rating (0 to 10 scale),"[3]; Preemergence, Rate 125 g/ha",0
same,Wheat plant response rating,[3]; [19],0
same,Wheat plant response rating,[3]; [20],0
same,Wheat plant response rating,[3]; [21],0
same,"Plant response rating, Wheat",[3]; [22],0
same,B. signalgrass plant response rating,[4]; [17],0
same,B. signalgrass plant response rating,[4]; [27],0
same,B. signalgrass plant response rating,[4]; [18],0
same,"B. signalgrass plant response rating (0 to 10 scale, 0 is no effect, 10 is complete control)","[4]; Preemergence, Rate 125 g/ha",0
same,B. signalgrass plant response rating,[4]; [19],0
same,B. signalgrass plant response rating,[4]; [20],0
same,B. signalgrass plant response rating,[4]; [21],0
same,"Plant response rating, B. signalgrass",[4]; [22],0
same,Sugarbeets plant response rating,[5]; [17],0
same,Sugarbeets plant response rating,[5]; [18],0
same,Sugarbeets plant response rating (0 to 10 scale),"[5]; Preemergence, Rate 125 g/ha",0
same,Sugarbeets plant response rating,[5]; [19],0
same,Sugarbeets plant response rating,[5]; [20],0
same,Sugarbeets plant response rating,[5]; [21],0
same,"Plant response rating, Sugarbeets",[5]; [22],0
same,Bedstraw plant response rating,[6]; [17],0
same,Bedstraw plant response rating,[6]; [27],0
same,Bedstraw plant response rating,[6]; [18],0
same,Bedstraw plant response rating (0 to 10 scale),"[6]; Preemergence, Rate 125 g/ha",0
same,Bedstraw plant response rating,[6]; [19],0
same,Bedstraw plant response rating,[6]; [20],0
same,Bedstraw plant response rating,[6]; [21],0
same,"Plant response rating, Bedstraw",[6]; [22],0
same,Cocklebur plant response rating,[7]; [17],0
same,Cocklebur plant response rating,[7]; [27],0
same,Cocklebur plant response rating,[7]; [18],0
same,Cocklebur plant response rating (0 to 10 scale),"[7]; Preemergence, Rate 125 g/ha",0
same,Cocklebur plant response rating,[7]; [19],0
same,Cocklebur plant response rating,[7]; [20],0
same,Cocklebur plant response rating,[7]; [21],0
same,"Plant response rating, Cocklebur",[7]; [22],2
same,Barnyardgrass plant response rating,[8]; [23],0
same,Barnyardgrass plant response rating,[8]; [24],0
same,Barnyardgrass plant response rating,[8]; [25],0
same,Barnyardgrass plant response rating,[8]; [26],0
same,Rape plant response rating,[9]; [17],0
same,Rape plant response rating,[9]; [18],0
same,Rape plant response rating (0 to 10 scale),"[9]; Preemergence, Rate 125 g/ha",0
same,Rape plant response rating,[9]; [19],0
same,Rape plant response rating,[9]; [20],0
same,Rape plant response rating,[9]; [21],0
same,"Plant response rating, Rape",[9]; [22],0
same,Wild oats plant response rating,[10]; [17],0
same,Wild oats plant response rating,[10]; [18],0
same,Wild oats plant response rating (0 to 10 scale),"[10]; Preemergence, Rate 125 g/ha",0
same,Wild oats plant response rating,[10]; [19],0
same,Wild oats plant response rating,[10]; [20],0
same,Wild oats plant response rating,[10]; [21],0
same,"Plant response rating, Wild oats",[10]; [22],0
same,Blackgrass plant response rating,[11]; [17],0
same,Blackgrass plant response rating,[11]; [27],0
same,Blackgrass plant response rating,[11]; [18],0
same,Blackgrass plant response rating (0 to 10 scale),"[11]; Preemergence, Rate 125 g/ha",0
same,Blackgrass plant response rating,[11]; [19],0
same,Blackgrass plant response rating,[11]; [20],0
same,Blackgrass plant response rating,[11]; [21],0
same,"Plant response rating, Blackgrass",[11]; [22],0
same,Morningglory plant response rating,[12]; [17],0
same,Morningglory plant response rating,[12]; [18],0
same,Morningglory plant response rating (0 to 10 scale),"[12]; Preemergence, Rate 125 g/ha",0
same,Morningglory plant response rating,[12]; [19],0
same,Morningglory plant response rating,[12]; [20],0
same,Morningglory plant response rating,[12]; [21],0
same,"Plant response rating, Morningglory",[12]; [22],0
same,Corn plant response rating,[13]; [17],0
same,Corn plant response rating,[13]; [27],0
same,Corn plant response rating,[13]; [18],0
same,Corn plant response rating (0 to 10 scale),"[13]; Preemergence, Rate 125 g/ha",0
same,Corn plant response rating,[13]; [19],0
same,Corn plant response rating,[13]; [20],0
same,Corn plant response rating,[13]; [21],0
same,"Plant response rating, Corn",[13]; [22],0
same,Nutsedge plant response rating,[14]; [17],0
same,Nutsedge plant response rating,[14]; [18],0
same,Nutsedge plant response rating (0 to 10 scale),"[14]; Preemergence, Rate 125 g/ha",0
same,Nutsedge plant response rating,[14]; [19],0
same,Nutsedge plant response rating,[14]; [20],0
same,Nutsedge plant response rating,[14]; [21],0
same,"Plant response rating, Nutsedge",[14]; [22],0
same,Crabgrass plant response rating,[15]; [17],0
same,Crabgrass plant response rating,[15]; [27],0
same,Crabgrass plant response rating,[15]; [18],0
same,Crabgrass plant response rating (0 to 10 scale),"[15]; Preemergence, Rate 125 g/ha",0
same,Crabgrass plant response rating,[15]; [19],0
same,Crabgrass plant response rating,[15]; [20],0
same,Crabgrass plant response rating,[15]; [21],0
same,"Plant response rating, Crabgrass",[15]; [22],0
same,Giant foxtail plant response rating,[16]; [17],0
same,Giant foxtail plant response rating,[16]; [27],0
same,Giant foxtail plant response rating,[16]; [18],0
same,Giant foxtail plant response rating (0 to 10 scale),"[16]; Preemergence, Rate 125 g/ha",0
same,Giant foxtail plant response rating,[16]; [19],0
same,Giant foxtail plant response rating,[16]; [20],0
same,Giant foxtail plant response rating,[16]; [21],0
same,"Plant response rating, Giant foxtail",[16]; [22],0
